Assay results as given in patent US6096930A, “Herbicidal cyclohexane-1,3-dione derivatives and their preparation process” (Korea Research Institute of Chemical Technology, priority 1994, dated 2000).

Legend:
Assay in all cases: Herbicidal activity, upland test, post-emergence
Assay type in all cases: in vivo
ORYSA = system: ORYSA
Text: (§1) The sterilized sandy loam soil is filled in test pot having a surface area of 348 cm^2 for upland test conditions or 115 cm^2 for paddy test species were planted in furrows.
(§2) The pots for the post-emergent tests were placed in a greenhouse and watered for 9~14 days, then the foliage of test plants was sprayed with a solution of the test compound in a mixture of acetone and water containing a small amount of Tween 20.
(§3) After spraying the plants were kept for one day, then watered regularly for 14 to 21 days, and herbicidal activity data were recorded.
(§4) The herbicidal activity data were taken visually by percent control, wherein 0 signifies no herbicidal effect and 100 signifies complete kill.

AESIN = system: AESIN
Text: as §1, §2, §3, §4

GLXMX = system: GLXMX
Text: as §1, §2, §3, §4

PANDI = system: PANDI
Text: as §1, §2, §3, §4

BROJA = system: BROJA
Text: as §1, §2, §3, §4

SORBI = system: SORBI
Text: as §1, §2, §3, §4

TRZAW = system: TRZAW
Text: as §1, §2, §3, §4

ABUTH = system: ABUTH
Text: as §1, §2, §3, §4

ECHOR = system: ECHOR
Text: as §1, §2, §3, §4

SOLNI = system: SOLNI
Text: as §1, §2, §3, §4

DIGSA = system: DIGSA
Text: as §1, §2, §3, §4

GOSHI = system: GOSHI
Text: as §1, §2, §3, §4

For `CCON=C(CC)C1=C(O)CC(c2c(C)c(C)c3c(c2C)CC(C)(C)C3)CC1=O` (stereo not drawn) [Compound 2], the “Herbicidal activity, ORYSA” value (ORYSA; 0.004 kg/ha) was 0 % inhibition, the “Herbicidal activity, ORYSA” value (ORYSA; 0.016 kg/ha) was 20 % inhibition and the “Herbicidal activity, ORYSA” value (ORYSA; 0.063 kg/ha) was 40 % inhibition. The “Herbicidal activity, ORYSA” value (ORYSA; 1.000 kg/ha) was 100 % inhibition, the “Herbicidal activity, ORYSA” value (ORYSA; 1.250 kg/ha) was 100 % inhibition and the “Herbicidal activity, AESIN” value (AESIN; 0.004 kg/ha) was 0 % inhibition. The “Herbicidal activity, AESIN” value (AESIN; 0.016 kg/ha) was 0 % inhibition, the “Herbicidal activity, AESIN” value (AESIN; 0.063 kg/ha) was 0 % inhibition and the “Herbicidal activity, AESIN” value (AESIN; 1.000 kg/ha) was 0 % inhibition. The “Herbicidal activity, AESIN” value (AESIN; 1.250 kg/ha) was 0 % inhibition, the “Herbicidal activity, GLXMX” value (GLXMX; 0.004 kg/ha) was 0 % inhibition and the “Herbicidal activity, GLXMX” value (GLXMX; 0.016 kg/ha) was 0 % inhibition. The “Herbicidal activity, GLXMX” value (GLXMX; 0.063 kg/ha) was 30 % inhibition, the “Herbicidal activity, GLXMX” value (GLXMX; 1.000 kg/ha) was 60 % inhibition and the “Herbicidal activity, GLXMX” value (GLXMX; 1.250 kg/ha) was 40 % inhibition. The “Herbicidal activity, PANDI” value (PANDI; 0.004 kg/ha) was 0 % inhibition, the “Herbicidal activity, PANDI” value (PANDI; 0.016 kg/ha) was 40 % inhibition and the “Herbicidal activity, PANDI” value (PANDI; 0.063 kg/ha) was 100 % inhibition. The “Herbicidal activity, PANDI” value (PANDI; 1.000 kg/ha) was 100 % inhibition, the “Herbicidal activity, PANDI” value (PANDI; 1.250 kg/ha) was 100 % inhibition and the “Herbicidal activity, BROJA” value (BROJA; 0.004 kg/ha) was 0 % inhibition. The “Herbicidal activity, BROJA” value (BROJA; 0.016 kg/ha) was 0 % inhibition, the “Herbicidal activity, BROJA” value (BROJA; 0.063 kg/ha) was 60 % inhibition and the “Herbicidal activity, BROJA” value (BROJA; 1.000 kg/ha) was 100 % inhibition. The “Herbicidal activity, BROJA” value (BROJA; 1.250 kg/ha) was 100 % inhibition, the “Herbicidal activity, SORBI” value (SORBI; 0.004 kg/ha) was 0 % inhibition and the “Herbicidal activity, SORBI” value (SORBI; 0.016 kg/ha) was 0 % inhibition. The “Herbicidal activity, SORBI” value (SORBI; 0.063 kg/ha) was 60 % inhibition, the “Herbicidal activity, SORBI” value (SORBI; 1.000 kg/ha) was 100 % inhibition and the “Herbicidal activity, SORBI” value (SORBI; 1.250 kg/ha) was 100 % inhibition. The “Herbicidal activity, TRZAW” value (TRZAW; 0.004 kg/ha) was 0 % inhibition, the “Herbicidal activity, TRZAW” value (TRZAW; 0.016 kg/ha) was 0 % inhibition and the “Herbicidal activity, TRZAW” value (TRZAW; 0.063 kg/ha) was 40 % inhibition. For the same molecule, the “Herbicidal activity, TRZAW” value (TRZAW; 1.000 kg/ha) was 100 % inhibition, the “Herbicidal activity, TRZAW” value (TRZAW; 1.250 kg/ha) was 100 % inhibition and the “Herbicidal activity, ABUTH” value (ABUTH; 0.004 kg/ha) was 0 % inhibition. The “Herbicidal activity, ABUTH” value (ABUTH; 0.016 kg/ha) was 0 % inhibition, the “Herbicidal activity, ABUTH” value (ABUTH; 0.063 kg/ha) was 0 % inhibition and the “Herbicidal activity, ABUTH” value (ABUTH; 1.000 kg/ha) was 0 % inhibition. The “Herbicidal activity, ABUTH” value (ABUTH; 1.250 kg/ha) was 0 % inhibition, the “Herbicidal activity, ECHOR” value (ECHOR; 0.004 kg/ha) was 80 % inhibition and the “Herbicidal activity, ECHOR” value (ECHOR; 0.016 kg/ha) was 90 % inhibition. The “Herbicidal activity, ECHOR” value (ECHOR; 0.063 kg/ha) was 100 % inhibition, the “Herbicidal activity, ECHOR” value (ECHOR; 1.000 kg/ha) was 100 % inhibition and the “Herbicidal activity, ECHOR” value (ECHOR; 1.250 kg/ha) was 100 % inhibition. The “Herbicidal activity, SOLNI” value (SOLNI; 0.004 kg/ha) was 0 % inhibition, the “Herbicidal activity, SOLNI” value (SOLNI; 0.016 kg/ha) was 0 % inhibition and the “Herbicidal activity, SOLNI” value (SOLNI; 0.063 kg/ha) was 0 % inhibition. For the same molecule, the “Herbicidal activity, SOLNI” value (SOLNI; 1.000 kg/ha) was 0 % inhibition, the “Herbicidal activity, SOLNI” value (SOLNI; 1.250 kg/ha) was 0 % inhibition and the “Herbicidal activity, DIGSA” value (DIGSA; 0.004 kg/ha) was 100 % inhibition. The “Herbicidal activity, DIGSA” value (DIGSA; 0.016 kg/ha) was 100 % inhibition, the “Herbicidal activity, DIGSA” value (DIGSA; 0.063 kg/ha) was 100 % inhibition and the “Herbicidal activity, DIGSA” value (DIGSA; 1.000 kg/ha) was 100 % inhibition. For the same molecule, the “Herbicidal activity, DIGSA” value (DIGSA; 1.250 kg/ha) was 100 % inhibition, the “Herbicidal activity, GOSHI” value (GOSHI; 0.004 kg/ha) was 0 % inhibition and the “Herbicidal activity, GOSHI” value (GOSHI; 0.016 kg/ha) was 0 % inhibition.
